Data reported in patent publication US8815857B2 (Boehringer Ingelheim International GmbH, priority 2011, dated 2014).
Converted amounts (≈) assume the structure as drawn.

Columns and labels:
[1] = molecular target: T1, human soluble guanylate cyclase alpha 1 and beta 1 subunits (sGC) stably expressed in Chinese hamster ovary cells (Homo sapiens, UniProt Q02108+Q02153); assay: sGC cellular activator assay: cGMP in CHO cells expressing human sGC, preincubated with ODQ; assay type: cell-based; conditions: 40 microM ODQ preincubation, 30 min at room temperature, presence or absence of 50% human serum not given, read-out: EC50 nM, Activity of Compounds in Cellular Assay
T1 construct: expressed in transfected cells; host or cells: Chinese hamster ovary cells, stably transfected
T1 sequence (Q02108 1-690 partner): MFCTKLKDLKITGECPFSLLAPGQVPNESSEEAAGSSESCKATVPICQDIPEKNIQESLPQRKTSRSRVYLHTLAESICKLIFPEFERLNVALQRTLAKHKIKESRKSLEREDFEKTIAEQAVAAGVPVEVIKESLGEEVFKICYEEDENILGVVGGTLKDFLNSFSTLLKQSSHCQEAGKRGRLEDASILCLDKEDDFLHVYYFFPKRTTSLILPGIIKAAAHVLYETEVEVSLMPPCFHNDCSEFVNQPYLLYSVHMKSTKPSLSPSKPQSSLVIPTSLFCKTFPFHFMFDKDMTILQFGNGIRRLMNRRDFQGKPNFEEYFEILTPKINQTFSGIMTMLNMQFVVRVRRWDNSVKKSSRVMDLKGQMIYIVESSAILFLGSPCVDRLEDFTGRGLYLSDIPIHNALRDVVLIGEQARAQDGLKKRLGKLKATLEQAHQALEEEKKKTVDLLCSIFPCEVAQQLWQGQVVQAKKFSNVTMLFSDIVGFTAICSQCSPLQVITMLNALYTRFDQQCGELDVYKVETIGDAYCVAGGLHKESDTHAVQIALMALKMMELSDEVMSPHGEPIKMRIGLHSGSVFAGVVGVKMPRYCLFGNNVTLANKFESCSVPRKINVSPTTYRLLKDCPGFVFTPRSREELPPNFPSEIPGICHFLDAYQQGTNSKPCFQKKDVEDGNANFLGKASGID
T1 sequence (Q02153 1-619): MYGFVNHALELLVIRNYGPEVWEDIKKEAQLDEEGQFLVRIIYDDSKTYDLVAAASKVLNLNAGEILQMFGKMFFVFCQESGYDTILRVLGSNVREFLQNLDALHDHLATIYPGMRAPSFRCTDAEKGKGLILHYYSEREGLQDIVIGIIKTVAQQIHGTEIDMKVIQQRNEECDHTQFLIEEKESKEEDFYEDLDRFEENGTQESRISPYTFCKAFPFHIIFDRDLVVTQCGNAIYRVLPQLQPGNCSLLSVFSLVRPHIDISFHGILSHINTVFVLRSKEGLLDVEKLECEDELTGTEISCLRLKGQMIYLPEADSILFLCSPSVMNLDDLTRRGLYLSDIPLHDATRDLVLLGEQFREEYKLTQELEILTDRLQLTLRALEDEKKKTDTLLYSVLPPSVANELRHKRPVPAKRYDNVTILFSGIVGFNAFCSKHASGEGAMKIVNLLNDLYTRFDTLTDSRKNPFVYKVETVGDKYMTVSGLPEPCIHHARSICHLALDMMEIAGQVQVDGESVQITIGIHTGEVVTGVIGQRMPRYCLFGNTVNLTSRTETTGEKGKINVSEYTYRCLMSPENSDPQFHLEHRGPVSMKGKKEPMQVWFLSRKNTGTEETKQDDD
Method: The sGC cellular activator assay is performed in the presence and absence of 50% human serum (HS) using Chinese hamster ovary cells that have been stably transfected to express the human soluble guanylate cyclase alpha 1 and beta 1 subunits (sGC). Cells are preincubated with 40 microM 1H-[1,2,4]oxadiazolo[4,3-a]quinoxalin-1-one (ODQ), an sGC inhibitor, for one hour in buffer containing 0.1% bovine serum albumin and 3-isobutyl-1-methylxanthine (IBMX). Concentration response curves are prepared for test compounds in DMSO. An intermediate dilution of the compounds is performed in either buffer containing IBMX or type AB HS containing IBMX. Diluted compounds are added to cells and they are incubated at room temperature for thirty minutes. cGMP is measured using a CisBio homogeneous time resolved fluorescence kit and the EC50 is calculated for each compound.

[2] = Assessment of solubility: HT solubility in pION buffer, UV spectrophotometry; conditions: for solubility: kinetic from dmso stock
[3] = pH 6.8, aqueous buffer, Solubility (pH 6.8), pH 6.8
[4] = pION system solution buffer, pH 4.5, pH 4.5, aqueous buffer, Solubility (pH 4.5), pH 4.5 buffer, 16-19 h incubation, 1.0% DMSO
[5] = pION system solution buffer, pH 7.4, pH 7.4, aqueous buffer, Solubility (pH 7.4), pH 7.4 buffer, 16-19 h incubation, 1.0% DMSO

SMILES | EC50 [1] | solubility [2, 3] | solubility [2, 4] | Solubility (pH 4.5) ([2]; pH 4.5 buffer, 16-19 h incubation, 1.0% DMSO) | solubility [2, 5]
Cc1ccc(OCc2ccc(CN3CCN(C)C(=O)C3C)cc2C)c(-c2csc(N3CC4CCC(C3)C4C(=O)O)n2)c1 (stereo not drawn) [Compound 290] | 4.3 nM | 21 µg/mL (≈ 35.7 µM) | 0.69 µg/mL (≈ 1.17 µM) |  | 
Cc1ccc(OCc2ccc(CN3CCOCC3)cc2C)c(-c2csc(N3CC[C@@H](C(=O)O)[C@H]3C)n2)c1 [Compound 242] | 90 nM | 37 µg/mL (≈ 70.9 µM) | 53 µg/mL (≈ 102 µM) |  | 
COCC1CN(Cc2ccc(COc3ccc(C)cc3-c3csc(N4C[C@H]5CC[C@@H](C4)[C@H]5C(=O)O)n3)c(C#N)c2)CCO1 (stereo partly drawn) [Compound 212] | 100 nM | 32 µg/mL (≈ 53.1 µM) | 11 µg/mL (≈ 18.2 µM) |  | 
Cc1ccc(OCc2ccc(CN3CCN(C)C(=O)C3)cc2C)c(-c2csc(N3CC4CCC(C3)C4C(=O)O)n2)c1 (stereo not drawn) [Compound 289] | 3.4 nM | 35 µg/mL (≈ 60.9 µM) | 1.5 µg/mL (≈ 2.61 µM) |  | 
Cc1ccc(OCc2ccc(CN3CCS(=O)(=O)CC3)cc2C)c(-c2csc(N3CCCC(C)(C(=O)O)CC3)n2)c1 (stereo not drawn) [Compound 230] | 120 nM | 0.95 µg/mL (≈ 1.59 µM) | < 0.1 µg/mL |  | 
Cc1ccc(OCc2ccc(CN3CCN(C(=O)C4CC4)CC3)cc2C)c(-c2csc(N3CC[C@@]4(C(=O)O)C[C@H]4C3)n2)c1 [Compound 225] | 7.3 nM | 0.3 µg/mL (≈ 0.499 µM) | 4.6 µg/mL (≈ 7.66 µM) |  | 
Cc1ccc(OCc2ccc(C(=O)N3CCCCC3)cc2C)c(-c2csc(N3CC[C@@]4(C(=O)O)C[C@H]4C3)n2)c1 [Compound 226] | 13 nM | 15 µg/mL (≈ 27.5 µM) | < 0.1 µg/mL |  | 
Cc1ccc(OCc2ccc(CN3CCS(=O)(=O)CC3)cc2C)c(-c2csc(N3CC[C@@]4(C(=O)O)C[C@H]4C3)n2)c1 [Compound 223] | 5.2 nM | 2.5 µg/mL (≈ 4.3 µM) | < 0.1 µg/mL |  | 
Cc1ccc(OCc2c(C)cc(C(=O)N3CCOCC3)cc2C)c(-c2csc(N3C[C@H]4CC[C@@H](C3)[C@H]4C(=O)O)n2)c1 [Compound 285] | 120 nM | 54 µg/mL (≈ 93.8 µM) | < 0.1 µg/mL |  | 
COc1cc(CN2CCOCC2)ccc1COc1ccc(C)cc1-c1csc(N2CCC(C(=O)O)CC2)n1 [Compound 278] | 51 nM |  | > 53 µg/mL |  | 30 µg/mL (≈ 55.8 µM)
Cc1ccc(OCc2ccc(CN3CCS(=O)(=O)CC3)cc2C)c(-c2csc(N3CC(CC(=O)O)C3)n2)c1 [Compound 253] | 380 nM | 0.29 µg/mL (≈ 0.522 µM) | 0.5 µg/mL (≈ 0.9 µM) |  | 
Cc1ccc(OCc2ccc(C(=O)N3CCOCC3)c(C)c2)c(-c2csc(N3C[C@H]4CC[C@@H](C3)[C@H]4C(=O)O)n2)c1 [Compound 281] | 28 nM | 4.6 µg/mL (≈ 8.19 µM) | < 0.1 µg/mL |  | 
Cc1ccc(OCc2ccc(CN3CCOC(CO)C3)cc2C#N)c(-c2csc(N3C[C@H]4CC[C@@H](C3)[C@H]4C(=O)O)n2)c1 (stereo partly drawn) [Compound 227] | 99 nM | 62 µg/mL (≈ 105 µM) | 54 µg/mL (≈ 91.7 µM) |  | 

More lines, now with the values ahead:

EC50 [1] | solubility [2, 3] | solubility [2, 4] | Solubility (pH 4.5) ([2]; pH 4.5 buffer, 16-19 h incubation, 1.0% DMSO) | solubility [2, 5] | SMILES
44 nM | 60 µg/mL (≈ 104 µM) | 53 µg/mL (≈ 92.2 µM) |  |  | Cc1ccc(OCc2ccc(C(=O)N3CCN(C)CC3)cc2C)c(-c2csc(N3C[C@H]4CC[C@@H](C3)[C@H]4C(=O)O)n2)c1 [Compound 300]
21 nM | 33 µg/mL (≈ 58.1 µM) |  |  |  | Cc1ccc(OCc2ccc(C(=O)N3CC(F)(F)C3)cc2C)c(-c2csc(N3C[C@H]4CC[C@@H](C3)[C@H]4C(=O)O)n2)c1 [Compound 360]
24 nM | 1.6 µg/mL (≈ 2.73 µM) | 2.7 µg/mL (≈ 4.6 µM) |  |  | Cc1ccc(OCc2ccc(CN3C[C@@H](C)O[C@@H](C)C3)cc2C#N)c(-c2csc(N3C[C@H]4CC[C@@H](C3)[C@H]4C(=O)O)n2)c1 [Compound 356]
30 nM | 8.1 µg/mL (≈ 13.8 µM) | 0.14 µg/mL (≈ 0.239 µM) |  |  | Cc1ccc(OCc2ccc(CN3CCOC(C)(C)C3)cc2C#N)c(-c2csc(N3C[C@H]4CC[C@@H](C3)[C@H]4C(=O)O)n2)c1 [Compound 358]
70 nM | 12 µg/mL (≈ 20.8 µM) | 0.23 µg/mL (≈ 0.399 µM) |  |  | Cc1ccc(OCc2ccc(C(=O)N3CCC[C@H](O)C3)cc2C)c(-c2csc(N3C[C@H]4CC[C@@H](C3)[C@H]4C(=O)O)n2)c1 [Compound 319]
20 nM | 66 µg/mL (≈ 112 µM) | 0.88 µg/mL (≈ 1.49 µM) |  |  | Cc1ccc(OCc2ccc(C(=O)N3CCN(C)C(=O)C3)cc2C)c(-c2csc(N3C[C@H]4CC[C@@H](C3)[C@H]4C(=O)O)n2)c1 [Compound 308]
46 nM | 52 µg/mL (≈ 86.7 µM) | < 0.1 µg/mL |  |  | Cc1ccc(OCc2ccc(C(=O)N(C)Cc3ccn(C)n3)cc2C)c(-c2csc(N3C[C@H]4CC[C@@H](C3)[C@H]4C(=O)O)n2)c1 [Compound 343]
110 nM | 59 µg/mL (≈ 98.5 µM) | 1.1 µg/mL (≈ 1.84 µM) |  |  | Cc1ccc(OCc2ccc(C(=O)N3CCn4cnnc4C3)cc2C)c(-c2csc(N3C[C@H]4CC[C@@H](C3)[C@H]4C(=O)O)n2)c1 [Compound 333]
23 nM | 61 µg/mL (≈ 108 µM) |  | 0.1 μg/mL | > 58 µg/mL | COCCN(C)C(=O)c1ccc(COc2ccc(C)cc2-c2csc(N3C[C@H]4CC[C@@H](C3)[C@H]4C(=O)O)n2)c(C)c1 [Compound 344]
24 nM | 11 µg/mL (≈ 19.2 µM) | 2.3 µg/mL (≈ 4.02 µM) |  |  | Cc1ccc(OCc2ccc(CN3CCO[C@H](C)C3)cc2C#N)c(-c2csc(N3C[C@H]4CC[C@@H](C3)[C@H]4C(=O)O)n2)c1 [Compound 357]
50 nM | 10 µg/mL (≈ 17.9 µM) | < 0.1 µg/mL |  |  | Cc1ccc(OCc2ccc(C(=O)N(C)CCC#N)cc2C)c(-c2csc(N3C[C@H]4CC[C@@H](C3)[C@H]4C(=O)O)n2)c1 [Compound 296]
70 nM | 49 µg/mL (≈ 84.8 µM) | 0.4 µg/mL (≈ 0.692 µM) |  |  | CCOCCN(C)C(=O)c1ccc(COc2ccc(C)cc2-c2csc(N3C[C@H]4CC[C@@H](C3)[C@H]4C(=O)O)n2)c(C)c1 [Compound 335]
52 nM | 40 µg/mL (≈ 73.4 µM) | < 0.1 µg/mL |  |  | Cc1ccc(OCc2ccc(C(=O)N(C)CC#N)cc2C)c(-c2csc(N3C[C@H]4CC[C@@H](C3)[C@H]4C(=O)O)n2)c1 [Compound 330]
40 nM | 69 µg/mL (≈ 123 µM) | 6.5 µg/mL (≈ 11.6 µM) |  |  | Cc1ccc(OCc2ccc(C(=O)N3CCN(C)C(=O)C3)cc2C)c(-c2csc(N3CCC(C(=O)O)CC3)n2)c1 [Compound 349]
